Reference: patent US20200407717A1, “METHODS OF MODULATING ANTISENSE ACTIVITY” (Ionis Pharmaceuticals, Inc., priority 2018, published 2020)
e = 2'-O-(2-methoxyethyl) (MOE); d = 2'-deoxy (DNA)

How the values were obtained:
EGFR = test: Microscopy of EGF-induced internalization and recycling of EGFR; format: cell-based; details: with EGF, 16 hours
Method: Microscopy studies were also carried out to evaluate the EGF-induced internalization and recycling of EGFR in the presence of Cy3-labeled PS-ASO, compound no. 446654. Cells were treated with EGF alone or EGF and compound no. 446654 for 16 hours. The cells were then either immediately stained and imaged, or the EGF and, if applicable, compound no. 446654 were removed for two hours prior to staining and imaging. Staining and imaging were performed as described above. […] Two hours after removal of EGF, cells show EGFR staining primarily in the plasma membrane. […] Two hours after removal of EGF and/or compound no. 446654, the Cy3 signal remained diffuse throughout the cytoplasm, while EGFR staining primarily localized to the plasma membrane.

Malat1 RNA = test: Antisense activity by RT-qPCR, Malat1, HEK cells; format: cell-based
Method: A431 cells were grown at 10,000 cells per well and pre-treated with a variety of growth factors to determine if the addition of exogenous growth factors affects antisense activity or uptake of modified antisense oligonucleotides in a cell. The growth factors used were EGF, insulin growth factor (IGF), transforming growth factor (TGF), […] (VEGF), hepatocyte growth factor (HGF), platelet growth factor (PGF) and fibroblasts growth factor (FGF). To test antisense activity, cells were treated for 4 hours with a growth factor or vehicle alone, and then treated with compound no. 25690 (complementary to Drosha), compound no. 395254 (complementary to Malat1), or vehicle alone. RNA was isolated from the cells and Drosha or Malat1 RNA levels were measured by RT-qPCR. Human primer probe set 13816 (forward sequence […], designated herein as SEQ ID NO: 3; reverse sequence […], designated herein as SEQ ID NO: 4; probe sequence […], designated herein as SEQ ID NO: 5) was used to measure Drosha mRNA levels and primer probe set RTS2736 (forward sequence […], designated herein as SEQ ID NO: 6; reverse sequence […], designated herein as SEQ ID NO: 7; probe sequence TGCCACATCGCCACCCCGT, designated herein as SEQ ID NO: 8) was used to measure Malat1 RNA levels. Drosha and Malat1 RNA levels were normalized to total RNA content, as measured by RIBOGREEN®. Results are presented in the tables below as normalized RNA levels, relative to untreated control cells.
HEK cells were transfected with 2 μg plasmid encoding EGFR using Lipofectamine 3000 (ThermoFisher) at 2 μg/million cells. Cells were grown for 2 weeks in G418 selection media to select clones overexpressing EGFR. Cells were treated with compound no. 395254 for 16 hours prior to RT-qPCR analysis for Malat1, as in Example 8. The results, shown in the table below, indicate that antisense activity was increased in cells with higher expression levels of EGFR.

Substance: Cy3-^mCesTesGes^mCesTesAdsGds^mCdsTds^mCdsTdsGdsGdsAdsTesTesTesGesAe (antisense CTGCTAGCCTCTGGATTTGA; listed as DNA, chemistry not fully specified) [compound 446654, Cy3-labeled PS-ASO]
- distribution of the ASO in cells (EGFR): distributed throughout the cytoplasm

Substance: GGCATATGCAGATAATGTTC (sugars from the 5' end e5 d10 e5, all phosphorothioate, methylation of C not given here) [compound 395254]
- Malat1 RNA (% Control) (Malat1 RNA; 1 nM, HEK cells overexpressing EGFR): 100 % control
- Malat1 RNA (% Control) (Malat1 RNA; 1 nM, Wild type HEK cells): 100 % control
- Malat1 RNA (% Control) (Malat1 RNA; 2 nM, HEK cells overexpressing EGFR): 77.8 % control
- Malat1 RNA (% Control) (Malat1 RNA; 2 nM, Wild type HEK cells): 98.3 % control
- Malat1 RNA (% Control) (Malat1 RNA; 3.9 nM, HEK cells overexpressing EGFR): 73.4 % control
- Malat1 RNA (% Control) (Malat1 RNA; 3.9 nM, Wild type HEK cells): 96 % control
- Malat1 RNA (% Control) (Malat1 RNA; 7.8 nM, HEK cells overexpressing EGFR): 73.3 % control
- Malat1 RNA (% Control) (Malat1 RNA; 7.8 nM, Wild type HEK cells): 87.5 % control
- Malat1 RNA (% Control) (Malat1 RNA; 15.6 nM, HEK cells overexpressing EGFR): 68.1 % control
- Malat1 RNA (% Control) (Malat1 RNA; 15.6 nM, Wild type HEK cells): 81.4 % control
- Malat1 RNA (% Control) (Malat1 RNA; 31.3 nM, HEK cells overexpressing EGFR): 62.2 % control
- Malat1 RNA (% Control) (Malat1 RNA; 31.3 nM, Wild type HEK cells): 86.2 % control
- Malat1 RNA (% Control) (Malat1 RNA; 62.5 nM, HEK cells overexpressing EGFR): 62.4 % control
- Malat1 RNA (% Control) (Malat1 RNA; 62.5 nM, Wild type HEK cells): 95.4 % control
- Malat1 RNA (% Control) (Malat1 RNA; 125 nM, HEK cells overexpressing EGFR): 55.9 % control
- Malat1 RNA (% Control) (Malat1 RNA; 125 nM, Wild type HEK cells): 82.7 % control
- Malat1 RNA (% Control) (Malat1 RNA; 250 nM, HEK cells overexpressing EGFR): 52.9 % control
- Malat1 RNA (% Control) (Malat1 RNA; 250 nM, Wild type HEK cells): 72.1 % control
- Malat1 RNA (% Control) (Malat1 RNA; 1000 nM, HEK cells overexpressing EGFR): 36.5 % control
- Malat1 RNA (% Control) (Malat1 RNA; 1000 nM, Wild type HEK cells): 47.1 % control
- Malat1 RNA (% Control) (Malat1 RNA; 2000 nM, HEK cells overexpressing EGFR): 35.3 % control
- Malat1 RNA (% Control) (Malat1 RNA; 2000 nM, Wild type HEK cells): 28.5 % control
- Malat1 RNA (% Control) (Malat1 RNA; 5000 nM (so in the source), HEK cells overexpressing EGFR): 44.1 % control
- Malat1 RNA (% Control) (Malat1 RNA; 5000 nM (so in the source), Wild type HEK cells): 54.8 % control
- antisense activity in cells with higher expression levels of EGFR (Malat1 RNA; 16 hours): increased
